Experimental data reported in ChEMBL document CHEMBL1135846, “In vivo active antimalarial isonitriles” (Bioorg Med Chem Lett, 2002).
Values after ≈ are worked out from the molar mass of the structure shown. One block for each compound: values may come before it.

How the values were obtained:
Plasmodium falciparum = assay: In vitro antimalarial activity for Plasmodium falciparum NF54; assay type: functional
Mus musculus [1] = assay: Antimalarial activity of compound against multidrug-resistant strain of Plasmodium yoelii in 5 Swiss mice (Mus musculus) treated at a dose of 50 mg/kg/day; assay type: functional
Mus musculus [2] = assay: Antimalarial activity of compound against multidrug-resistant strain of Plasmodium yoelii in 5 Swiss mice (Mus musculus) treated at a dose of 100 mg/kg/day; assay type: functional
Mus musculus [3] = assay: Antimalarial activity of compound against multidrug-resistant strain of Plasmodium yoelii in Swiss mice (Mus musculus) at a dose of 100 mg/kg/day (percent suppression on day 4); assay type: functional
Mus musculus [4] = assay: Antimalarial activity of compound against multidrug-resistant strain of Plasmodium yoelii in Swiss mice (Mus musculus) at a dose of 50 mg/kg/day (percent suppression on day 4); assay type: functional
Mus musculus [5] = assay: Antimalarial activity of compound against multidrug-resistant strain of Plasmodium yoelii in 5 Swiss mice (Mus musculus) at a dose of 100 mg/kg/day; assay type: functional
Mus musculus [6] = assay: Antimalarial activity of compound against multidrug-resistant strain of Plasmodium yoelii in 5 Swiss mice (Mus musculus) at a dose of 50 mg/kg/day; assay type: functional
Mus musculus [7] = assay: Antimalarial activity of compound against multidrug-resistant strain of Plasmodium yoelii in Swiss mice (Mus musculus) at a dose of 50 mg/kg/day (percent suppression on day 4-nil); assay type: functional, organism-based
Mus musculus [8] = assay: In vivo antimalarial activity of compound against multidrug-resistant strain of Plasmodium yoelii in 5 Swiss mice (Mus musculus) treated at a dose of 25 mg/kg/day; assay type: functional
Mus musculus [9] = assay: Antimalarial activity of compound against multidrug-resistant strain of Plasmodium yoelii in 5 Swiss mice (Mus musculus) treated at a dose of 6.25 mg/Kg/day; assay type: functional
Mus musculus [10] = assay: Antimalarial activity of compound against multidrug-resistant strain of Plasmodium yoelii in Swiss mice (Mus musculus) at a dose of 6.25 mg/kg/day (percent suppression on day 4); assay type: functional
Mus musculus [11] = assay: Number of mice alive on day 28 treated with a dose of 50 mg/kg/day; assay type: functional
Mus musculus [12] = assay: Number of mice alive on day 28 treated with a dose of 6.25 mg/kg/day; assay type: functional
Mus musculus [13] = assay: Antimalarial activity of compound against multidrug-resistant strain of Plasmodium yoelii in Swiss mice (Mus musculus) at a dose of 12.5 mg/kg/day (percent suppression on day 4); assay type: functional
Mus musculus [14] = assay: Mean survival time of animals was calculated after administering a dose of 25 mg/kg/day during 28-day observation period; assay type: functional
Mus musculus [15] = assay: Mean survival time of animals was calculated after administering a dose of 50 mg/kg/day during 28-day observation period; assay type: functional
Mus musculus [16] = assay: Mean survival time of animals was calculated after administering a dose of 6.25 mg/Kg/day during 28-day observation period; assay type: functional
Mus musculus [17] = assay: Number of mice alive on day 28 treated with a dose of 12.5 mg/kg/day; assay type: functional
Mus musculus [18] = assay: Number of mice alive on day 28 treated with a dose of 25 mg/kg/day; assay type: functional
Mus musculus [19] = assay: Mean survival time of animals was calculated after administering a dose of 12.5 mg/kg/day during 28-day observation period; assay type: functional
Mus musculus [20] = assay: Antimalarial activity of compound against multidrug-resistant strain of Plasmodium yoelii in Swiss mice (Mus musculus) at a dose of 25 mg/kg/day (percent suppression on day 4); assay type: functional
Mus musculus [21] = assay: Antimalarial activity of compound against multidrug-resistant strain of Plasmodium yoelii in 5 Swiss mice (Mus musculus) treated at a dose of 12.5 mg/Kg/day; assay type: functional
[22] = Antimalarial activity of compound against multidrug-resistant strain of Plasmodium yoelii in Swiss mice (Mus musculus) at a dose of 100 mg/kg/day (percent suppression on day 4); toxic; assay type: organism-based; conditions: in vivo

SMILES: C[C@@H]1CC[C@H]2[C@@H](C)C(=O)O[C@@H]3O[C@@]4(C)CC[C@@H]1[C@]32OO4 [ARTEMISININ]
- MIC (Plasmodium falciparum): 0.03 µg/mL (≈ 0.106 µM)

SMILES: [C-]#[N+]c1ccc2ccccc2c1
- MIC (Plasmodium falciparum): 50 µg/mL (≈ 326 µM)

SMILES: [C-]#[N+]c1ccc(-c2ccccc2)cc1
- No. of mice cured (Mus musculus [1]): 0
- No. of mice cured (Mus musculus [2]): 0
- Supression (Mus musculus [3]): 62.79%
- Supression (Mus musculus [4]): 32.98%
- MIC (Plasmodium falciparum): 1 µg/mL (≈ 5.58 µM)

SMILES: [C-]#[N+]c1ccc2c(c1)Cc1ccccc1-2
- No. of mice cured (Mus musculus [1]): 0
- No. of mice cured (Mus musculus [2]): 0
- Supression (Mus musculus [3]): 21.35%
- Supression (Mus musculus [4]): 6.34%
- MIC (Plasmodium falciparum): 2 µg/mL (≈ 10.5 µM)

SMILES: [C-]#[N+]c1ccc(C(C)=O)cc1
- No. of mice cured (Mus musculus [5]): 0
- No. of mice cured (Mus musculus [6]): 0
- Supression (Mus musculus [7]): Nil
- Supression (Mus musculus [3]): 35.72%
- MIC (Plasmodium falciparum): 2 µg/mL (≈ 13.8 µM)

SMILES: [C-]#[N+]C12CC3CC(CC(C3)C1)C2
- No. of mice cured (Mus musculus [8]): 0
- No. of mice cured (Mus musculus [1]): 2
- No. of mice cured (Mus musculus [9]): 0
- No. of mice cured (Mus musculus [2]): 0
- Supression (Mus musculus [10]): 19%
- Survival (Mus musculus [11]): 2
- Survival (Mus musculus [12]): 0
- Supression (Mus musculus [13]): 73%
- Supression (Mus musculus [4]): 100%
- MST (Mus musculus [14]): 12.8
- MST (Mus musculus [15]): 16.3
- MST (Mus musculus [16]): 8.2
- Survival (Mus musculus [17]): 0
- Survival (Mus musculus [18]): 1
- MST (Mus musculus [19]): 11.8
- Supression (Mus musculus [20]): 99.8%
- No. of mice cured (Mus musculus [21]): 0
- MIC (Plasmodium falciparum): 0.4 µg/mL (≈ 2.48 µM)
- Supression [22]: Toxic

Continued, values first:

- MIC (Plasmodium falciparum): 50 µg/mL (≈ 192 µM)
SMILES: [C-]#[N+]c1ccc(Br)cc1Br

- MIC (Plasmodium falciparum): 50 µg/mL (≈ 303 µM)
SMILES: [C-]#[N+]C1C[C@H](C)CC[C@H]1C(C)C (some centres not stated)

- MIC (Plasmodium falciparum): > 50 µg/mL
SMILES: [C-]#[N+][C@H]1CC[C@@]2(C)[C@@H](CC[C@@H]3[C@@H]2CC[C@]2(C)[C@@H]([C@H](C)CCCC(C)C)CC[C@@H]32)C1

- MIC (Plasmodium falciparum): > 50 µg/mL
SMILES: [C-]#[N+]C1CC[C@@]2(C)[C@@H](CC[C@@H]3[C@@H]2CC[C@]2(C)[C@@H]([C@H](C)CCCC(C)C)CC[C@@H]32)C1 (some centres not stated)

- MIC (Plasmodium falciparum): 50 µg/mL (≈ 326 µM)
SMILES: [C-]#[N+]c1cccc2ccccc12

- MIC (Plasmodium falciparum): 0.04 µg/mL (≈ 0.125 µM)
SMILES: CCN(CC)CCCC(C)Nc1ccnc2cc(Cl)ccc12 (configuration not stated) [CHLOROQUINE]
